Where no end group is shown, it is not given here.
Columns and labels:
S6S7AA-CCR5 = experiment: BRET CAMYEL Gαi signaling via S6S7AA-CCR5; type: cell-based, human; conditions: CHO cells, n = 3
Procedure: (§1) BRET measurements of Gαi signaling and β-arrestin recruitment: Cells were seeded in 6-well plates (500,000 cells/well) and transiently transfected the following day. For BRET measurements of Gαi signaling, cells were transfected with vectors encoding the human chemokine receptors as indicated (160 ng/well) and the CAMYEL sensor (cAMP sensor, YFP-Epac-RLuc) (840 ng/well) using Lipofectamine (6 µL/well). Briefly, DNA was dissolved in 125 µL OPTI-MEM and Lipofectamine was dissolved in 125 µL OPTI-MEM. The DNA and Lipofectamine solutions were combined into a transfection mixture. The transfection mixture was added dropwise to cells incubated in OPTI-MEM (1 mL/well). Transfections were terminated after 5 h by adding 1 mL of fresh culture medium on top of the OPTI-MEM. The following day the cells were loosened from the plates in PBS with 5 mM glucose and subsequently aliquoted in white 96-well iso plates (~25,000 cells/well). […] The BRET signal is determined as the ratio eYFP (530 nm)/Rluc (480 nm).
(§2) BRET principle with CAMYEL: For quantification of signaling initiated immediately downstream of receptor activation, we used the cAMP binding CAMYEL sensor to perform bioluminescence resonance energy transfer (BRET) based assays. […] The BRET ratio is determined as the ratio between YFP/Rluc, and an increase in BRET ratio indicates a decrease in cAMP and thus increased chemokine receptor activation. […]

Y10Y14Y15AAA-CCR5 = experiment: BRET CAMYEL Gαi signaling via Y10Y14Y15AAA-CCR5; type: cell-based, human; conditions: CHO cells, n = 3
Procedure: as §1, §2

naked CCR5 N-terminus = experiment: Fluorescence polarization binding to FAM-labeled CCR5 N-terminal peptide; set-up: species or system human
Procedure: (§3) Fluorescence polarization (FP) assay: The carboxyfluorescein (FAM)-labeled peptides representing the CCR1 and CCR5 N-termini functioned as the probes for quantifying the interaction between the receptor N-terminus and C21TP^81-111. The probe was diluted in FP buffer (1:3, PBS:MilliQ) and 10 µL was added to a final concentration of 250 nM per well in a black 384-well plate (Corning). The C21TP^81-111 peptide (2 mM) was diluted using a two-fold dilution series; 30 µL of the peptide was added to each well to final concentrations ranging from 12.21 nM to 100 µM. Blanks containing 10 µL probe and 30 µL FP buffer were included. The plate was spun down at 1000 rpm for 1 min and the FP signal was measured on a Flex station using SoftMax Pro software 7.0. Each experiment was conducted in triplicate. The binding curves were generated by plotting the FP signal, expressed as millipolarization units (mP), against C21TP^81-111 concentration. The dissociation constant (Kd) value was calculated using GraphPad Prism 9.
(§4) Probes: • CCR1: (5,6-FAM)-[…], • CCR5: (5,6-FAM)-ADYQVSSPIYDINYYTSEP.

naked CCR1 N-terminus = naked CCR1 N-terminus (Homo sapiens, UniProt P32246); experiment: Fluorescence polarization binding to FAM-labeled CCR1 N-terminal peptide; conditions: FAM probe 250 nM, FP buffer PBS:MilliQ 1:3, peptide 12.21 nM to 100 µM, n = 3, read-out: dissociation constant (Kd) for CCR1 N-terminal peptide
Chain of naked CCR1 N-terminus (P32246 with tags, fused parts or gaps limits assumed): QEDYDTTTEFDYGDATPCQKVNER
Procedure: as §3, §4

[1] = molecular target: fully sulfated version of the CCR1 N-terminal peptide; set-up: method as in PMID 30567735; conditions: read-out: affinity for the fully sulfated version of the CCR1 N-terminal peptide; cited from earlier work
[2] = tested on: peptides corresponding to the CCR5 receptor N-terminus; conditions: cited from earlier work
Text: CCR5, in contrast to CCR1, has an N-terminus that is sparse in acidic amino acids but has multiple tyrosine sulfation sites as well as O-glycosylation sites, that might increase the negative charge of the receptor N-terminus through post-translational modifications. CCL5 affinity towards peptides corresponding to the CCR5 receptor N-terminus increases by ≥100-fold if the peptides are sulfated on Y10 and Y14 [30], and the same tyrosine sulfation is needed for HIV1env protein binding and viral entry.

Row | Substance | boosting of CCL5 signaling via S6S7AA receptor variant (S6S7AA-CCR5; 10 µM peptide) | boosting of CCL5 signaling via Y10Y14Y15AAA receptor variant (Y10Y14Y15AAA-CCR5; 10 µM peptide) | binding to the naked CCR5 N-terminus (naked CCR5 N-terminus) | Kd (naked CCR1 N-terminus) [nM] | Kd [1] [nM] | Gαi signaling via S6S7AA-CCR5 compared to WT-CCR5 (S6S7AA-CCR5) | Gαi signaling via Y10Y14Y15AAA-CCR5 compared to WT-CCR5 (Y10Y14Y15AAA-CCR5) | increase of affinity towards CCR5 N-terminus peptides if sulfated on Y10 and Y14 [2] [fold]
1 | RKDRGASKTGKKGKGSKGCKRTERSQTPKGP [C21TP^81-111] | maintained | no longer possible | no such binding is observed | ~2890 |  |  |  | 
2 | CCL5: human chemokine from Peprotech, overall basic |  |  |  |  | 100 | significantly reduced | completely abolished | ≥ 100

— PMC11477141, “Chemokine Receptor N-Terminus Charge Dictates Reliance on Post-Translational Modifications for Effective Ligand Capture and Following Boosting by Defense Peptides” (International Journal of Molecular Sciences, 2024)
